# Legend:
# hSTING-WT (R232) = target: T1, hSTING-WT (R232) (Homo sapiens, UniProt Q86WV6, H232R); assay: STING activation, THP1-Dual IRF3 reporter assay, hSTING-R232 cells; format: cell-based; details: IRF3 luciferase reporter, 24 hours, read-out: STING activity using hSTING-R232 cells EC50
# T1 construct: host or cells: THP1-Dual cells (human monocytes) with knocked-in hSTING R232
# Protocol: To assess potency of STING agonist compounds described herein, THP1-Dual™ Cells (NF—KB-SEAP and IRF-Lucia luciferase reporter monocytes, InvivoGen) were used. The reporter cells were knocked-in either of hSTING-WT (R232, #thpd-r232), HAQ variant (#thpd-nfis), or H232 variant (#thpd-h232). All cells were cultured at 37° C. in a humidified incubator at 5% CO2 and maintained in RPMI 1640 medium (Gibco, #22400097) supplemented with 10% heat-inactivated FBS and 1×Pen-Strep (Gibco, #15140122). To measure STING agonist-mediated IRF3 activity, the cells (9.0×10^4 cells per well) were seeded in a flat-bottomed 96-well plate. The next day, the cells were treated with compounds in a serial dilution for 24 hours. Subsequently, 20 μL of the cell culture supernatant and 50 μL of the QUANTI-Luc™ reagent (InvivoGen, #rep-qlc) were mixed in a 96-well white plate and then, luciferase activity was measured using an EnVision Xcite multilabel reader. The data were analyzed using Prism8 software (4-parameter).
# The potency of STING agonist compounds was evaluated by the activation of Type I Interferon pathway using THP-1 IRF3 reporter assay.
# [1] = tested on: human peripheral blood mononuclear cells (PBMCs); assay: Cytokine production induction in PBMCs (ELISA); format: cell-based; details: 1 μM, 24 hours; for human CXCL-10 production: FIG. 1A; for human IFNα production: FIG. 1B
# Protocol: The cells (2.0×10^4 cells per well) were seeded in a flat-bottomed 96-well plate. PBMCs were stimulated with STING agonist compounds described herein (Compound 214, 221, and 230) at 1 μM for 24 hours. BxPC-3 and MDA-MB-468 tumor cells were treated with STING agonist compounds described herein (Compound 313) in a 5-fold serial dilution from […] for 24 hours, respectively. The levels of cytokines in the culture supernatants were measured using the ELISA kit (R&D systems, #DY266, #DY9345-05) according to the manufacture's instruction.
# Briefly, each well of a 96-well plate was coated with 100 μL of the diluted capture antibody in PBS and incubated overnight at room temperature (RT). Next day, each well was washed with wash buffer (0.05% Tween 20 in PBS) three times using an auto-washer. The plates were blocked with 300 μL of Reagent Diluent (1% BSA in PBS) for 1 hour at RT. The aspiration/wash step was repeated. 100 μL of diluted samples or standards in Reagent Diluent was added to each well and incubated for 2 hours at RT. After wash, 100 μL of the Detection Antibody pre-diluted in Reagent Diluent was added into each well and incubated for 2 hours at RT. After wash, 100 μL of the working diluted […] in Reagent Diluent was added and incubated under subdued light conditions for 20 minutes, followed by repeated aspiration/wash. 100 μL of substrate solution (mixed H2O2 and Tetramethylbenzidine in a 1:1 ratio) was added and incubated for 20 minutes at RT in avoiding direct light exposure. The reaction was stopped by adding 50 μL of stop solution (2N H2SO4). The optical density was determined using a microplate reader (Molecular Devices VersaMax Microplate Reader). The optical density (O.D.) of each well was normalized by subtracting the reading at 570 nm from the reading at 450 nm.
# [2] = Plasma pharmacokinetics in naive Balb/C mouse, LC-MS/MS; format: in vivo; details: 1.5 mg/kg single IV; for AUC∞, norm / Cmax, norm: n = 3, dose-normalised; for AUC(0-inf) / AUC(0-t) / C0 / Cmax / clearance / half-life / Vd: female; for AUC(0-inf) / AUC(0-t) / C0 / Cmax: n = 3, plasma; for clearance / half-life / Vd: plasma; for clearance / half-life: n = 3; for Vd: n = 3, read-out: VSS
# Protocol: For in vivo evaluation of STING agonist compounds described herein in naïve Balb/C mouse, single doses of STING agonist compounds were given at 1.5 mg/kg intravenously into female BALB/c mice (Orientbio, South Korea) at 6-8 weeks of age. Pharmacokinetics were studied following injection of the STING agonist compounds into Balb/C mice. Plasma samples were taken at various time points and stored frozen for analysis. The plasma concentrations of the STING agonist compounds at the indicated time points were measured using a LC-MS/MS analysis method.
# Briefly, 250 μL of acetonitrile (ACN) solution was added in both 50 μL of sample and 50 μL of plasma containing 10 nM Dextromethorphan (internal standard), and the solutions were mixed vigorously using a vortex mixer for 5 minutes. The samples were then spun down at 14,000 rpm, 4° C. for 5 minutes. 100 μL of supernatants were combined with 100 μL of mobile phase A (0.1% formic acid in water with 5% ACN) and mixed thoroughly. The samples were measured for the STING agonist compounds using a LC-MS/MS (Nexera LC40 (SHIMADZU) and QTRAP4500 (SCIEX)).
# human STING = target: T2, human STING (Homo sapiens, UniProt Q86WV6, H232R); assay: Direct STING binding, HUMAN STING WT BINDING KIT (Cisbio); details: direct binding to human STING WT protein in vitro; read-out: Binding potency EC50
# T2 construct: purchased Cisbio 64BDSTGPEG
# T2 sequence (Q86WV6 whole entry H232R): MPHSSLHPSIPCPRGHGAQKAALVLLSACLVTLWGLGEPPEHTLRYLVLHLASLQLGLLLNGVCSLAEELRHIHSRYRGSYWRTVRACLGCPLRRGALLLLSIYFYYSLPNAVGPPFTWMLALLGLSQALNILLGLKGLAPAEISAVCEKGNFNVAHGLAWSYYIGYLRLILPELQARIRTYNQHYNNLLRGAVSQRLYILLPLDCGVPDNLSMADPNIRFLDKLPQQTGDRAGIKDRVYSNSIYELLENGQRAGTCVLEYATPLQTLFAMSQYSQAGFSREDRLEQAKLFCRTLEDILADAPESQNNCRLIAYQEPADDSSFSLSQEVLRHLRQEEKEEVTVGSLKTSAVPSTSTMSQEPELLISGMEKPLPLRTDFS
# Excerpt: Additionally, for analysis of direct binding potency of STING agonist compounds described herein to human STING, HUMAN STING WT BINDING KIT (Cisbio, #64BDSTGPEG) was used according to the manufacture's instruction.
# [3] = tested on: human PBMCs (CD8+ T cells and NK cells); assay: CD8+ T and NK cell activation in PBMCs by flow cytometry; format: cell-based; details: for expansion of activated CD8+ T cells / expansion of activated NK cells: 3 μM, 24 hours; for expansion of activated CD8+ T cells: FIG. 5A; for expansion of activated NK cells: FIG. 5B
# Protocol: To test the effect of STING agonist compounds described herein in the activation of innate and adaptive immune cells, flow cytometry (FACS) was performed. Human THP-1 cells (Korean Cell Line Bank, #40202) and PBMCs were seeded at 1.2×10^5 cells per well in a round-bottomed 96-well plate in RPMI 1640 medium (Gibco, #22400097) supplemented with 10% heat-inactivated FBS and 1× Antibiotic-Antimycotic (Gibco, #15240062) and rested for 24 hours at 37° C. The cells were stimulated with the STING agonist compounds as described; For THP-1 stimulation, the cells were treated with the STING agonist compound (Compound 313) in a 5-fold serial dilution from 1 μM for 48 hours. The induction of cell surface activation markers, CD86 (co-stimulatory molecule) and HLA-DR (MHC-class II), was measured by flow cytometry. […] For flow cytometry analysis, the stimulated cells were centrifuged at 300 g for 5 minutes at 4° C., and then resuspended in FACS buffer (2% FBS, 2 mM EDTA in PBS). After staining cells with human Fc blocker (BD Biosciences, #564220) in FACS buffer for 10 minutes at 4° C. Subsequently, the cells were stained with fluorescence-conjugated antibodies against CD8, CD3, CD56, and CD69 for CD8 T and NK cells activation and against CD86 and MHC-II for THP-1 naïve cells activation for 40 minutes at 4° C. After washing three times with FACS buffer, the cells were resuspended in FACS buffer and analyzed by FACSlyric (BD bioscience). The data were analyzed with Flowjo 9.0 software (BD bioscience).
# After treating human PBMCs with the STING agonist compounds, it was analyzed the activation of CD8^+ T cells and NK cells by measuring CD69, an activation marker, on their cell surface by flow cytometry.
# [4] = Normal cell cytotoxicity in PBMCs, CellTiter-Glo; format: cell-based; details: human, read-out: In vitro cell cytotoxicity in PBMCs CC50
# Protocol: PBMCs were also purchased from […]™ (#700025.2). The cells (8.0×10^4 cells per well) were seeded in a flat-bottomed 96-well plate in RPMI 1640 medium (Gibco, #22400097) with 10% heat-inactivated FBS and 1× Antibiotic-Antimycotic (Gibco, #15240062) and rested for 24 hours at 37° C. […] After 72 hours, the cell viability was measured using CellTiter-Glo Luminescent Cell Viability Assay (Promega, #G7573) according to the manufacture's instruction. The signal was detected using an EnVision Xcite multilabel reader and data were analyzed using GraphPad Prism 8 software.
# To verify the effect of the STING agonist compounds in normal cell cytotoxicity, the PBMCs were treated with the STING agonist compounds for 3 days and measured the percentage of cell death.
# [5] = Normal cell cytotoxicity in CD34+ HSC, CellTiter-Glo; format: cell-based; details: human, CD34+ hematopoietic stem cells (HSCs), read-out: In vitro cell cytotoxicity in CD34+ HSC CC50
# Protocol: The CD34^+ hematopoietic stem cells (HSCs) were purchased from […]™ (#70002.3). The cells (2×10^4 cells per well) were cultured in StemSpan™ SFEM II medium supplemented with StemSpan™ CD34+ Expansion Supplement (#02691) in a 6-well plate at 37° C. for 7 days. On day 3 or 4, an equal volume of fresh complete medium was added into the cell culture. On day 7, the cells (4×10^4 cells per well) were seeded in a 96-well white plate and rested for 24 hours in the same condition.
# After 72 hours, the cell viability was measured using CellTiter-Glo Luminescent Cell Viability Assay (Promega, #G7573) according to the manufacture's instruction. The signal was detected using an EnVision Xcite multilabel reader and data were analyzed using GraphPad Prism 8 software.
# T1 sequence (Q86WV6 whole entry H232R): as above
structure (smiles),measurement,setting,value
CCn1nc(C)cc1C(=O)Nc1nc2cc(C(N)=O)cc(OC)c2n1CC=CCn1c(NC(=O)c2cc(C)nn2CC)nc2cc(C(N)=O)cc(OCCCN3CCN(C(=O)OCc4ccc(OC5OC(C(=O)O)C(O)C(O)C5O)c(C(=O)NCCOC)c4)CC3=O)c21 (centres unmarked) [Compound 221],EC50,hSTING-WT (R232),68.3 nM
same,human CXCL-10 production,[1],induced cytokine production
same,human IFNα production,[1],induced cytokine production
same,"AUC∞, norm",[2],4.53 ± 0.15 kg·h/L
same,"Cmax, norm",[2],5.37 ± 0.30 kg/L
same,AUC(0-inf),[2],6800 ± 230 ng·h/mL
same,AUC(0-t),[2],6670 ± 220 ng·h/mL
same,C0,[2],9790 ± 430 ng/mL
same,Cmax,[2],8060 ± 450 ng/mL
same,clearance,[2],3.67 mL/min/kg
same,half-life,[2],1.06 ± 0.04 h
same,Vd,[2],0.26 ± 0.01 L/kg
CCn1nc(C)cc1C(=O)Nc1nc2cc(C(N)=O)cc(OC)c2n1C/C=C/Cn1c(NC(=O)c2cc(C)nn2CC)nc2cc(C(N)=O)cc(OCc3cccc(NC(=O)OCc4ccc(O[C@@H]5O[C@H](C(=O)O)[C@@H](O)[C@H](O)[C@H]5O)c(C(=O)NCCOC)c4)c3)c21 [Compound 230],EC50,hSTING-WT (R232),3.96 nM
same,human CXCL-10 production,[1],induced cytokine production
same,human IFNα production,[1],induced cytokine production
CCn1nc(C)cc1C(=O)Nc1nc2cc(C(N)=O)cc(OC)c2n1C/C=C/Cn1c(NC(=O)c2cc(C)nn2CC)nc2cc(C(N)=O)cc(OC/C=C/Cn3cc(NC(=O)OCc4ccc(O[C@@H]5O[C@H](C(=O)O)[C@@H](O)[C@H](O)[C@H]5O)c(C(=O)NCCOCCOCCO)c4)cn3)c21 [Compound 277],EC50,hSTING-WT (R232),27.4 nM
same,EC50,human STING,0.2 nM
same,CD69 expression on CD8+ T cells,"[3]; 100 nM, 48 hours, FIG. 4A",enhanced CD69 expression
same,CD69 expression on NK cells,"[3]; 100 nM, 48 hours, FIG. 4B",enhanced CD69 expression
same,"AUC∞, norm",[2],7.37 ± 0.25 kg·h/L
same,"Cmax, norm",[2],4.04 ± 0.24 kg/L
same,AUC(0-inf),[2],11100 ± 370 ng·h/mL
same,AUC(0-t),[2],10500 ± 490 ng·h/mL
same,C0,[2],6530 ± 320 ng/mL
same,Cmax,[2],6060 ± 360 ng/mL
same,clearance,[2],2.33 mL/min/kg
same,half-life,[2],1.38 ± 0.19 h
same,Vd,[2],0.27 ± 0.03 L/kg
same,CC50 at 72 h,[4],32.1 nM
same,CC50 at 72 h,[5],13.5 nM
CCn1nc(C)cc1C(=O)Nc1nc2cc(C(N)=O)cc(OC)c2n1C/C=C/Cn1c(NC(=O)c2cc(C)nn2CC)nc2cc(C(N)=O)cc(OC/C=C/Cn3cc(NC(=O)OCc4ccc(O[C@@H]5O[C@H](C(=O)O)[C@@H](O)[C@H](O)[C@H]5O)c(C(=O)NCCOCCOCCO[C@@H]5O[C@H](C(=O)O)[C@@H](O)[C@H](O)[C@H]5O)c4)cn3)c21 [Compound 344],EC50,hSTING-WT (R232),11.1 nM
same,EC50,human STING,0.24 nM
same,expansion of activated CD8+ T cells,[3],enhanced expansion
same,expansion of activated NK cells,[3],enhanced expansion
CCn1nc(C)cc1C(=O)Nc1nc2cc(C(N)=O)cc(OC/C=C/Cn3cc(NC(=O)OCc4ccc(O[C@@H]5O[C@H](C(=O)O)[C@@H](O)[C@H](O)[C@H]5O)c(C(=O)NCCOCCOCCN5CCOCC5)c4)cn3)c2n1C/C=C/Cn1c(NC(=O)c2cc(C)nn2CC)nc2cc(C(N)=O)cc(OCCCC(=O)O)c21 [Compound 361],EC50,hSTING-WT (R232),35.8 nM
same,EC50,human STING,0.1 nM
same,expansion of activated CD8+ T cells,[3],enhanced expansion
same,expansion of activated NK cells,[3],enhanced expansion
